Assay [1] concerns STZ-induced diabetic SD rats. How it is done:
Male SD rats, 6 weeks of age and weighing 180-200 g, were used in this study; the rats had free access to food and water and were maintained in cages in an environmentally controlled room with a 12 hour light-dark cycle. Diabetes was induced by following dosing of animals with streptozotocin (50 mg/kg/day dosed i.p. for each of the first 3 days of the protocol) in 10 mM sodium citrate-buffer pH 4.6. […] Animals which maintained an elevated blood glucose level of over 9 mM were deemed diabetic.
The retinal images were scanned by a commercially available Fourier-domain OCT (RTVue-100; version 2.1; Optovue, Inc., California, USA). Super-luminescent diode light source with a central wavelength of 840 nm and a full bandwidth of 50 nm was adapted to the OCT. The retinal thickness was accessed by the automatic software of RTVue scanner with manual adjusting. The retinal thickness was defined from layer of retinal pigment eitheluim (RPE) to retinal ganglion cell layer (GCL).
Two separate studies were conducted. Retinal images were taken on experimental day 4, 10, 13, 17, 22, 28 and 31 for the second study and day 0, 4, 7, 10, 14 and 18 for the first study. Animals were anesthetized by inhalation of 5% isoflourane and pupils were diluted with 1% tropicamide and 1% phenylephrine. Prior to OCT analysis animals were fixed on a support frame and the eye to be imaged positioned to align with the center of the scan beam perpendicular to the fundus. […] After imaging, the animals were recovered and returned to cages. Retinal thickness from six time points of OCT measurement were analyzed by repeated measures analysis of variance (ANOVA) using Prism software. […] All data were expressed as mean value±SEM.

Another assay has as its target Lp-PLA2 (Rattus norvegicus, UniProt A6JJ35). The settings on record: hyperglycemic BN rats, 10 mg/kg i.p. QD. As to the method:
(§1) Brown Norway (BN) rats, 6 weeks of age and weighing 180-200 g, were used in this study; the rats had free access to food and water and were maintained in cages in an environmentally controlled room with a 12 hour light-dark cycle. Diabetes was induced by following dosing of animals with streptozotocin (65 mg/kg/day dosed i.p. for each of the first 3 days of the protocol) in 10 mM sodium citrate-buffer pH 4.6. […] Animals which maintained an elevated blood glucose level of over 9 mM were deemed diabetic.

Assay [2] deals with STZ-induced diabetic Brown Norway rats (blood-retinal barrier). Particulars: BN rats, 2 week study, 10 mg/kg i.p. QD; not statistically robust. As to the method:
as §1

For assay [3] the test system is unchanged. The settings on record: hyperglycaemic BN rats. As to the method: as §1
Eyes were enucleated, hemisected along the ora serrata, and the vitreous humor removed. Eyecups were immersion fixed in 4% (w/v) paraformaldehyde for 30 min, washed in PBS, and the retinas detached. Fixed retinas were cryoprotected, embedded in Tissue-Tek OCT compound snap frozen in liquid nitrogen-cooled isopentane, and 12-μm cryosections prepared. Sections was immunostained with antibodies specific for rat immunoglobulin G (IgG) in order to locate any nonvascular IgG and isolectin B4 to determine the location of retinal blood vessels in the retinal sections and viewed on a confocal microscope. Fluorescence was visualized by using a Nikon TE-2000 C1 confocal system (Nikon Ltd, Kingston upon Thames, UK). In some cases retinal blood vessels were highlighted using propridium iodide staining

Molecules are shown by their SMILES. Read-outs that look alike come from different tables or passages of the source.

Chain of Lp-PLA2 (A6JJ35 22-440): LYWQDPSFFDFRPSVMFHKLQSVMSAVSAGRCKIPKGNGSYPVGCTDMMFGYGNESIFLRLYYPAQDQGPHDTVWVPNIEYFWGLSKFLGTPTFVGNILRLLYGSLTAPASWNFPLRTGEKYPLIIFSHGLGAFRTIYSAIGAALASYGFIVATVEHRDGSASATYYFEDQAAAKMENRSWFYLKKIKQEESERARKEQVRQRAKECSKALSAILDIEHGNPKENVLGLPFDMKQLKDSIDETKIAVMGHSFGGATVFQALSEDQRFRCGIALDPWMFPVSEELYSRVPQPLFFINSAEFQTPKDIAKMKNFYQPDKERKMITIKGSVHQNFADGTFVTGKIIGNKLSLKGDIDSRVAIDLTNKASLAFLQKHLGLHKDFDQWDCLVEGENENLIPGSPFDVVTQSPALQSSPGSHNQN

For `CN(C)CCN(Cc1ccc(-c2ccc(C(F)(F)F)cc2)cc1)C(=O)Cn1cc(Cc2cnn(C)c2)c(=O)nc1SCc1ccc(F)cc1` [Lp-PLA2 inhibitor '495], the “STZ-induced retinal thinning (neuroretinal thickness by OCT)” value is recorded as “partially but significantly inhibited” in assay [1] (first study, 10 mg/kg/day i.p. from day 8, assessed at 10 and 18 days, p<0.05); “significant attenuation in the development of retinal thinning” in assay [1] (second study, 10 mg/kg/d i.p. from day 4, vs vehicle-treated diabetic rats, p<0.001). Also, the “incidence of sub-retinal fluid accumulation by OCT” value in assay [1] (hyperglycaemic SD rats, 10 mg/kg/day, day 14) was “no animals to have overt retinal fluid accumulation”. Also, the “trough Lp-PLA2 inhibition” value at Lp-PLA2 (2 weeks study) came out at 89.7%; on Lp-PLA2 (4 week study) it was 93.2%. Besides, the “Evans blue (albumin) leakage in retinae” value in assay [2] was “reduced this leak to levels exhibited by the normo-glycaemic group”. The “albumin leakage from retinal vessels (immunohistochemistry)” value in assay [3] (10 mg/kg QD i.p., 4 weeks, listed as SB435495, 10 mg/kg) was “less leakage and extensive co-localization of albumin with retinal blood vessels”; in assay [3] (20 mg/kg QD i.p., 2 weeks, 20 mg/kg), “albumin is contained intravascularly and co-localised with retinal vessels”; in assay [3] (20 mg/kg QD i.p., 2 weeks, listed as SB435495, 20 mg/kg), “less leakage and extensive co-localization of albumin with retinal blood vessels”.
